Consider 14 compounds from US8343983B2, “Substituted pyrazolo-pyrimidine compounds” (ArQule, Inc., priority 2009, dated 2013).

For the experiment, the system named is cancer cells. As to the kind of experiment: MTS assay: inhibition of cell growth (formazan absorbance at 492 nm after 72 hours with test compound). In kind it is cell-based. The settings on record: inhibition class. In a few lines:
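DMEM with 1% FBS; cells seeded at 3000/well and grown 18 h at 37 °C, then exposed to compound for 72 h and to MTS/PMS for 4 h. IC50 is the concentration giving a 50% absorbance drop; grades are % inhibition bands.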

Setting [1] is: Homo sapiens, DLD-1 cells, read-out: DLD-1, MTS 72 hours at 10 uM.
The mark [2] stands for this setting: Homo sapiens, KATO III cells, read-out: KATO III, MTS 72 hours at 10 uM.
The mark [3] stands for this setting: Homo sapiens, MDA-MB-231 cells, read-out: MDA-MB-231, MTS 72 hours at 10 uM.
[4] abbreviates: Homo sapiens, NCI-H1299 cells, read-out: NCI-H1299, MTS 72 hours at 10 uM.
Where [5] appears, read: Homo sapiens, PC-3 cells, read-out: PC-3, MTS 72 hours at 10 uM.
Where [6] appears, read: PACA-2 cells, read-out: PACA-2, MTS 72 hours at 10 uM.

Molecules are shown by their SMILES. Like-named read-outs stand apart in the source and are kept apart here.

`COc1cccc(CCNc2nc3c4c(n[nH]c4n2)C(C(=O)NCc2ccccc2)CN3Cc2ccccc2)c1` (stereo not drawn) [Compound 224, N,6-dibenzyl-4-{[2-(3-methoxyphenyl)ethyl]amino}-2,6,7,8-tetrahydro-1,2,3,5,6-pentaazaacenaphthylene-8-carboxamide]: the inhibition at 10 µM is, setting by setting: under setting [1], less than 50%; under setting [2], less than 50%; under setting [3], less than 50%; under setting [4], less than 50%; under setting [5], less than 50%; under setting [6], less than 50%.

Turning to `O=C(NCc1ccccc1)C1CN(Cc2ccccc2)c2nc(NC3CCC3)nc3[nH]nc1c23` (stereo not drawn) [Compound 232, N,6-dibenzyl-4-(cyclobutylamino)-2,6,7,8-tetrahydro-1,2,3,5,6-pentaazaacenaphthylene-8-carboxamide], the inhibition at 10 µM was less than 50% under setting [1]; less than 50% under setting [2]; less than 50% under setting [3]; less than 50% under setting [4]; less than 50% under setting [5]; less than 50% under setting [6].

`O=C(NCc1ccccc1)C1CN(Cc2ccccc2)c2nc(NCc3ccccc3Cl)nc3[nH]nc1c23` (stereo not drawn) [Compound 229, N,6-dibenzyl-4-[(2-chlorobenzyl)amino]-2,6,7,8-tetrahydro-1,2,3,5,6-pentaazaacenaphthylene-8-carboxamide]: the inhibition at 10 µM reads like this: under setting [1], less than 50%; under setting [2], less than 50%; under setting [3], less than 50%; under setting [4], less than 50%; under setting [5], 50 to 79%; under setting [6], less than 50%.

`O[C@H](CNc1nc2c3c(n[nH]c3n1)CCN2Cc1ccccc1)c1ccccc1` [Compound 72, (1S)-2-[(6-benzyl-2,6,7,8-tetrahydro-1,2,3,5,6-pentaazaacenaphthylen-4-yl)amino]-1-phenylethanol]: the inhibition at 10 µM runs as follows: under setting [1], less than 50%; under setting [2], less than 50%; under setting [3], less than 50%; under setting [4], less than 50%; under setting [5], less than 50%; under setting [6], less than 50%.

As to `COc1ccc(CN2CCN(c3nc4c5c(n[nH]c5n3)CCN4Cc3ccccc3)CC2)cc1` [Compound 24, 6-benzyl-4-[4-(4-methoxybenzyl)piperazin-1-yl]-2,6,7,8-tetrahydro-1,2,3,5,6-pentaazaacenaphthylene], the inhibition at 10 µM is, setting by setting: under setting [1], less than 50%; under setting [2], less than 50%; under setting [3], less than 50%; under setting [4], less than 50%; under setting [5], less than 50%; under setting [6], less than 50%.

On to `O=C(NCc1ccccc1)C1CN(Cc2ccccc2)c2nc(N3CCN(c4ccccc4)CC3)nc3[nH]nc1c23` (stereo not drawn) [Compound 231, N,6-dibenzyl-4-(4-phenylpiperazin-1-yl)-2,6,7,8-tetrahydro-1,2,3,5,6-pentaazaacenaphthylene-8-carboxamide], for which the inhibition at 10 µM was 50 to 79% under setting [1]; 50 to 79% under setting [2]; greater than 79% under setting [3]; greater than 79% under setting [4]; 50 to 79% under setting [5]; 50 to 79% under setting [6].

Regarding `Cc1ccccc1CCNc1nc2c3c(n[nH]c3n1)CCN2Cc1ccccc1` [Compound 87, 6-benzyl-N-[2-(2-methylphenyl)ethyl]-2,6,7,8-tetrahydro-1,2,3,5,6-pentaazaacenaphthylen-4-amine], the inhibition at 10 µM is, setting by setting: under setting [1], less than 50%; under setting [2], less than 50%; under setting [3], less than 50%; under setting [4], 50 to 79%; under setting [5], less than 50%; under setting [6], less than 50%.

`COc1ccc(CN2CCc3n[nH]c4nc(NC5CCN(C)CC5)nc2c34)cc1` [Compound 111, 6-(4-methoxybenzyl)-N-(1-methylpiperidin-4-yl)-2,6,7,8-tetrahydro-1,2,3,5,6-pentaazaacenaphthylen-4-amine]: the inhibition at 10 µM is, setting by setting: under setting [1], less than 50%; under setting [2], less than 50%; under setting [3], less than 50%; under setting [4], less than 50%; under setting [5], less than 50%; under setting [6], less than 50%.

Turning to `COc1cc(OC)nc(CN2CCN(c3nc4c5c(n[nH]c5n3)CCN4Cc3ccccc3)CC2)n1` [Compound 20, 6-benzyl-4-{4-[(4,6-dimethoxypyrimidin-2-yl)methyl]piperazin-1-yl}-2,6,7,8-tetrahydro-1,2,3,5,6-pentaazaacenaphthylene], the inhibition at 10 µM is less than 50% under setting [1]; less than 50% under setting [2]; less than 50% under setting [3]; less than 50% under setting [4]; less than 50% under setting [5]; less than 50% under setting [6].

Turning to `c1ccc(CN2CCc3n[nH]c4nc(NCc5ccco5)nc2c34)cc1` [Compound 54, 6-benzyl-N-(2-furylmethyl)-2,6,7,8-tetrahydro-1,2,3,5,6-pentaazaacenaphthylen-4-amine], the inhibition at 10 µM reads like this: under setting [1], less than 50%; under setting [2], less than 50%; under setting [3], less than 50%; under setting [4], less than 50%; under setting [5], less than 50%; under setting [6], less than 50%.

Regarding `c1ccc(CN2CCc3n[nH]c4nc(NCc5cccnc5)nc2c34)cc1` [Compound 10, 6-benzyl-N-(pyridin-3-ylmethyl)-2,6,7,8-tetrahydro-1,2,3,5,6-pentaazaacenaphthylen-4-amine], the inhibition at 10 µM under setting [1] was less than 50%; the inhibition at 10 µM under setting [2] was less than 50%; the inhibition at 10 µM under setting [3] was less than 50%; the inhibition at 10 µM under setting [4] was less than 50%; the inhibition at 10 µM under setting [5] was less than 50%; the inhibition at 10 µM under setting [6] was less than 50%.

With `N#Cc1cccnc1N1CCN(c2nc3c4c(n[nH]c4n2)CCN3Cc2ccccc2)CC1` [Compound 8, 2-[4-(6-benzyl-2,6,7,8-tetrahydro-1,2,3,5,6-pentaazaacenaphthylen-4-yl)piperazin-1-yl]nicotinonitrile], the inhibition at 10 µM under setting [1] is less than 50%; the inhibition at 10 µM under setting [2] was less than 50%; the inhibition at 10 µM under setting [3] was less than 50%; the inhibition at 10 µM under setting [4] is less than 50%; the inhibition at 10 µM under setting [5] is less than 50%; the inhibition at 10 µM under setting [6] is less than 50%.

`COc1cccc(CCNc2nc3c4c(n[nH]c4n2)CCN3Cc2ccccc2)c1OC` [Compound 39, 6-benzyl-N-[2-(2,3-dimethoxyphenyl)ethyl]-2,6,7,8-tetrahydro-1,2,3,5,6-pentaazaacenaphthylen-4-amine]: the inhibition at 10 µM was less than 50% under setting [1]; less than 50% under setting [2]; less than 50% under setting [3]; less than 50% under setting [4]; less than 50% under setting [5]; less than 50% under setting [6].

As for `COc1ccc(CN2CCc3n[nH]c4nc(NCCOc5ccccc5)nc2c34)cc1` [Compound 108, 6-(4-methoxybenzyl)-N-(2-phenoxyethyl)-2,6,7,8-tetrahydro-1,2,3,5,6-pentaazaacenaphthylen-4-amine], the inhibition at 10 µM was 50 to 79% under setting [1]; less than 50% under setting [2]; less than 50% under setting [3]; less than 50% under setting [4]; less than 50% under setting [5]; greater than 79% under setting [6].
